Reference: BigSolDB 2.1

SMILES: CC(=O)Oc1ccccc1C(=O)Nc1ncc([N+](=O)[O-])s1
- solubility (mole fraction) (in DMF, 278.15 K): 0.0665
- solubility (mole fraction) (in DMF, 283.15 K): 0.0716
- solubility (mole fraction) (in DMF, 288.15 K): 0.077
- solubility (mole fraction) (in DMF, 293.15 K): 0.0825
- solubility (mole fraction) (in DMF, 298.15 K): 0.0882
- solubility (mole fraction) (in DMF, 303.15 K): 0.0934
- solubility (mole fraction) (in DMF, 308.15 K): 0.0992
- solubility (mole fraction) (in DMF, 313.15 K): 0.106
- solubility (mole fraction) (in DMF, 318.15 K): 0.112
- solubility (mole fraction) (in DMF, 323.15 K): 0.118
- solubility (mole fraction) (in NMP, 278.15 K): 0.0891
- solubility (mole fraction) (in NMP, 283.15 K): 0.093
- solubility (mole fraction) (in NMP, 288.15 K): 0.0964
- solubility (mole fraction) (in NMP, 293.15 K): 0.1
- solubility (mole fraction) (in NMP, 298.15 K): 0.104
- solubility (mole fraction) (in NMP, 303.15 K): 0.107
- solubility (mole fraction) (in NMP, 308.15 K): 0.112
- solubility (mole fraction) (in NMP, 313.15 K): 0.116
- solubility (mole fraction) (in NMP, 318.15 K): 0.119
- solubility (mole fraction) (in NMP, 323.15 K): 0.123
- solubility (mole fraction) (in isopropanol, 278.15 K): 0.000205
- solubility (mole fraction) (in isopropanol, 283.15 K): 0.000239
- solubility (mole fraction) (in isopropanol, 288.15 K): 0.000277
- solubility (mole fraction) (in isopropanol, 293.15 K): 0.000319
- solubility (mole fraction) (in isopropanol, 298.15 K): 0.000367
- solubility (mole fraction) (in isopropanol, 303.15 K): 0.000419
- solubility (mole fraction) (in isopropanol, 308.15 K): 0.000476
- solubility (mole fraction) (in isopropanol, 313.15 K): 0.000542
- solubility (mole fraction) (in isopropanol, 318.15 K): 0.000607
- solubility (mole fraction) (in isopropanol, 323.15 K): 0.000684
- solubility (mole fraction) (in water, 278.15 K): 1.26e-07
- solubility (mole fraction) (in water, 283.15 K): 1.66e-07
- solubility (mole fraction) (in water, 288.15 K): 2.23e-07
- solubility (mole fraction) (in water, 293.15 K): 2.93e-07
- solubility (mole fraction) (in water, 298.15 K): 3.81e-07
- solubility (mole fraction) (in water, 303.15 K): 4.98e-07
- solubility (mole fraction) (in water, 308.15 K): 6.34e-07
- solubility (mole fraction) (in water, 313.15 K): 8.11e-07
- solubility (mole fraction) (in water, 318.15 K): 9.9e-07
- solubility (mole fraction) (in water, 323.15 K): 1.24e-06
